From US6472391B2, “Nitrogen-containing heterocyclic compounds” (Millennium Pharmaceuticals, Inc., priority 1996, dated 2002)

melting point	SMILES
184 to 185 °C	COc1cc2ncnc(N3CCN(C(=O)NCCc4cccs4)CC3)c2cc1OC [Compound 96, 4-(6,7-Dimethoxy-4-quinazolinyl)-N-[2-(2-thienyl)ethyl]-1-piperazinecarboxamide]
169 to 171 °C	COc1cc2ncnc(N3CCN(C(=S)Nc4cccnc4)CC3)c2cc1OC [Compound 97, 4-(6,7-Dimethoxy-4-quinazolinyl)-N-(3-pyridyl)-1-piperazinethiocarboxamide]
153 to 155 °C	COc1cc2ncnc(N3CCN(C(=S)Nc4ccc5c(O)nnc(O)c5c4)CC3)c2cc1OC [Compound 99, N-(1,4-Dihydroxy-6-phthalazinyl)-4-(6,7-dimethoxy-4-quinazolinyl)-1-piperazinethiocarboxamide]
122 to 123 °C	COc1cc2ncnc(N3CCN(C(=O)Nc4ccc(CN5CCCCC5)cc4)CC3)c2cc1OC [Compound 100, 4-(6,7-Dimethoxy-4-quinazolinyl)-N-[4-(piperidinomethyl)phenyl]-1-piperazinecarboxamide]
155 to 158 °C	O=C(Nc1ccc([N+](=O)[O-])cc1)N1CCN(c2ncnc3ccccc23)CC1 [Compound 103, N-(4-Nitrophenyl)-4-(4-quinazolinyl)-1-piperazinecarboxamide]
74 to 75 °C	O=C(Nc1ccc(Oc2ccccc2)cc1)N1CCN(c2ncnc3ccccc23)CC1 [Compound 104, N-(4-Phenoxyphenyl)-4-(4-quinazolinyl)-1-piperazinecarboxamide]
187 to 190 °C	CCOc1cc2ncnc(N3CCN(C(=O)Nc4ccc(Oc5ccccc5)cc4)CC3)c2cc1OCC [Compound 106, 4-(6,7-Diethoxy-4-quinazolinyl)-N-(4-phenoxyphenyl)-1-piperazinecarboxamide]
197 to 199 °C	COc1cc2c(N3CCN(C(=O)Nc4ccc([N+](=O)[O-])cc4)CC3)ncnc2c(OC)c1OC [Compound 107, N-(4-Nitrophenyl)-4-(6,7,8-trimethoxy-4-quinazolinyl)-1-piperazinecarboxamide]
83 to 84 °C	COc1cc2c(N3CCN(C(=O)Nc4ccc(Oc5ccccc5)cc4)CC3)ncnc2c(OC)c1OC [Compound 108, N-(4-Phenoxyphenyl)-4-(6,7,8-trimethoxy-4-quinazolinyl)-1-piperazinecarboxamide]
242 to 244 °C	CCNc1cc2ncnc(N3CCN(C(=O)Nc4ccc(Oc5ccccc5)cc4)CC3)c2cc1[N+](=O)[O-] [Compound 109, 4-(7-Ethylamino-6-nitro-4-quinazolinyl)-N-(4-phenoxyphenyl)-1-piperazinecarboxamide]
236 to 238 °C	O=C(Nc1ccc([N+](=O)[O-])cc1)N1CCN(c2nc(-c3ccccc3)nc3ccccc23)CC1 [Compound 110, 4-(2-Phenyl-4-quinazolinyl)-N-(4-nitrophenyl)-1-piperazinecarboxamide]
156 to 157 °C	COc1cc2nc(-c3ccccc3)nc(N3CCN(C(=O)Nc4ccc([N+](=O)[O-])cc4)CC3)c2cc1OC [Compound 111, 4-(6,7-Dimethoxy-2-phenyl-4-quinazolinyl)-N-(4-nitrophenyl)-1-piperazinecarboxamide]
243 to 244 °C	COc1cc2ncnc(N3CCCN(C(=O)Nc4ccc([N+](=O)[O-])cc4)CC3)c2cc1OC [Compound 112, 4-(6,7-Dimethoxy-4-quinazolinyl)-N-(4-nitrophenyl)-1-homopiperazinecarboxamide]
247 to 248 °C	COc1cc2ccnc(N3CCN(C(=O)Nc4ccc([N+](=O)[O-])cc4)CC3)c2cc1OC [Compound 113, 4-(6,7-Dimethoxy-1-isoquinolyl)-N-(4-nitrophenyl)-1-piperazinecarboxamide]
227 to 228 °C	COc1cc2cc(Cl)nc(N3CCN(C(=O)Nc4ccc([N+](=O)[O-])cc4)CC3)c2cc1OC [Compound 114, 4-(3-Chloro-6,7-dimethoxy-1-isoquinolyl)-N-(4-nitrophenyl)-1-piperazinecarboxamide]
159 to 161 °C	O=C(Nc1ccc(Oc2ccccc2)cc1)N1CCN(c2ccnc3cc(Cl)ccc23)CC1 [Compound 115, 4-(7-Chloro-4-quinolyl)-N-(4-phenoxyphenyl)-1-piperazinecarboxamide]
196 to 197 °C	COc1cc2ncnc(N3CCN(C(=O)N(c4ccccc4)c4ccccc4)CC3)c2cc1OC [Compound 116, 4-(6,7-Dimethoxy-4-quinazolinyl)-N,N-diphenyl-1-piperazinecarboxamide]
254 to 256 °C	COc1cc2ncnc(N3CCN(C(=O)Nc4ccc(N5CCOCC5)cc4)CC3)c2cc1OC [Compound 117, 4-(6,7-Dimethoxy-4-quinazolinyl)-N-(4-morpholinophenyl)-1-piperazinecarboxamide]
209 to 210 °C	COc1cc2ncnc(N3CCN(C(=O)Nc4ccc5[nH]ccc5c4)CC3)c2cc1OC [Compound 118, 4-(6,7-Dimethoxy-4-quinazolinyl)-N-(5-indolyl)-1-piperazinecarboxamide]
177 to 178 °C	COc1cc2ncnc(N3CCN(C(=O)NCCc4ccc(Cl)cc4)CC3)c2cc1OC [Compound 119, N-[2-(4-Chlorophenyl)ethyl]-4-(6,7-dimethoxy-4-quinazolinyl)-1-piperazinecarboxamide]

melting point	SMILES
174 to 175 °C	COc1cc2ncnc(N3CCN(C(=O)NCCc4ccc(Br)cc4)CC3)c2cc1OC [Compound 120, N-[2-(4-Bromophenyl)ethyl]-4-(6,7-dimethoxy-4-quinazolinyl)-1-piperazinecarboxamide]
250 to 255 °C	Cn1c(=O)n(C)c2cc3c(N4CCN(C(=O)Nc5ccc(Oc6ccccc6)cc5)CC4)ncnc3cc21 [Compound 121, 4-(1,3-Dihydro-1,3-dimethyl-2-oxo-2H-imidazo[4,5-g]quinazolin-8-yl)-N-(4-phenoxyphenyl)-1-piperazinecarboxamide]
168 to 169 °C	CCn1c(=O)n(CC)c2cc3c(N4CCN(C(=O)Nc5ccc(Oc6ccccc6)cc5)CC4)ncnc3cc21 [Compound 122, 4-(1,3-Diethyl-1,3-dihydro-2-oxo-2H-imidazo[4,5-g]quinazolin-8-yl)-N-(4-phenoxyphenyl)-1-piperazinecarboxamide]
248 to 251 °C	CCn1c(=O)[nH]c2cc3c(N4CCN(C(=O)Nc5ccc(Oc6ccccc6)cc5)CC4)ncnc3cc21 [Compound 123, 4-(3-Ethyl-1,3-dihydro-2-oxo-2H-imidazo[4,5-g]quinazolin-8-yl)-N-(4-phenoxyphenyl)-1-piperazinecarboxamide]
167 to 168 °C	CCn1nnc2cc3c(N4CCN(C(=O)Nc5ccc(Oc6ccccc6)cc5)CC4)ncnc3cc21 [Compound 124, 4-(3-Ethyl-3H-1,2,3-triazolo[4,5-g]quinazolin-8-yl)-N-(4-phenoxyphenyl)-1-piperazinecarboxamide]
187 to 189 °C	COc1cc2ncnc(N3CCN(C(=S)NCc4ccccc4)CC3)c2cc1OC [Compound 125, N-Benzyl-4-(6,7-dimethoxy-4-quinazolinyl)-1-piperazinethiocarboxamide]
191 to 192 °C	COc1cc2ncnc(N3CCN(C(=O)N[C@@H](C)c4ccccc4)CC3)c2cc1OC [Compound 127, (S)-4-(6,7-Dimethoxy-4-quinazolinyl)-N-(1-phenylethyl)-1-piperazinecarboxamide]
189 to 190 °C	COc1cc2ncnc(N3CCN(C(=O)N[C@H](C)c4ccccc4)CC3)c2cc1OC [Compound 128, (R)-4-(6,7-Dimethoxy-4-quinazolinyl)-N-(1-phenylethyl)-1-piperazinecarboxamide]
98 to 100 °C	COc1cc2ncnc(N3CCN(C(=S)N[C@@H](C)c4ccccc4)CC3)c2cc1OC [Compound 129, (S)-4-(6,7-Dimethoxy-4-quinazolinyl)-N-(1-phenylethyl)-1-piperazinethiocarboxamide]
99 to 101 °C	COc1cc2ncnc(N3CCN(C(=S)N[C@H](C)c4ccccc4)CC3)c2cc1OC [Compound 130, (R)-4-(6,7-Dimethoxy-4-quinazolinyl)-N-(1-phenylethyl)-1-piperazinethiocarboxamide]
164 to 165 °C	COc1cc2ncnc(N3CCN(C(=S)NCc4cccc5ccccc45)CC3)c2cc1OC [Compound 132, 4-(6,7-Dimethoxy-4-quinazolinyl)-N-(1-naphthylmethyl)-1-piperazinethiocarboxamide]
128 to 129 °C	COc1cc2ncnc(N3CCN(C(=S)NC(c4ccccc4)c4ccccc4)CC3)c2cc1OC [Compound 133, 4-(6,7-Dimethoxy-4-quinazolinyl)-N-diphenylmethyl-1-piperazinethiocarboxamide]
187 to 188 °C	COc1cc2ncnc(N3CCN(C(=O)N(C)c4ccccc4)CC3)c2cc1OC [Compound 137, 4-(6,7-Dimethoxy-4-quinazolinyl)-N-methyl-N-phenyl-1-piperazinecarboxamide]
170 to 171 °C	COc1cc2ncnc(N3CCN(C(=S)NCC4CCCCC4)CC3)c2cc1OC [Compound 138, N-Cyclohexylmethyl-4-(6,7-dimethoxy-4-quinazolinyl)-1-piperazinethiocarboxamide]
79 to 81 °C	COc1cc2ncnc(N3CCN(C(=S)NCCN4CCOCC4)CC3)c2cc1OC [Compound 142, 4-(6,7-Dimethoxy-4-quinazolinyl)-N-(2-morpholinoethyl)-1-piperazinethiocarboxamide]
184 to 186 °C	COc1cc2ncnc(N3CCN(C(=S)NC(=O)C=Cc4ccccc4)CC3)c2cc1OC [Compound 143, N-Cinnamoyl-4-(6,7-dimethoxy-4-quinazolinyl)-1-piperazinethiocarboxamide]
218 to 219 °C	COc1cc2ncnc(N3CCN(C(=O)Nc4cccc(C)c4)CC3)c2cc1OC [Compound 144, 4-(6,7-Dimethoxy-4-quinazolinyl)-N-(3-tolyl)-1-piperazinecarboxamide]
199 to 201 °C	COc1cc2ncnc(N3CCN(C(=S)Nc4cccc(C)c4)CC3)c2cc1OC [Compound 145, 4-(6,7-Dimethoxy-4-quinazolinyl)-N-(3-tolyl)-1-piperazinethiocarboxamide]
204 to 205 °C	COc1cc2ncnc(N3CCN(C(=S)Nc4ccc(C)cc4)CC3)c2cc1OC [Compound 146, 4-(6,7-Dimethoxy-4-quinazolinyl)-N-(4-tolyl)-1-piperazinethiocarboxamide]
